Measurements taken from patent US20220153746A1, “NITROGEN OXIDE-DONATING PDE-5 AND/OR PDE-6 INHIBITOR COMPOUNDS, AND USES THEREOF” (ILDONG PHARMACEUTICAL CO., LTD., priority 2020, published 2022).
Several values for one entry are separate records, joined by “and”; a condition that tells them apart may be missing. Identical values can stand only once. Like-named read-outs stand apart in the source and are kept apart here.

Test: TD Phase (Groups 1 and 3): plasma and ocular tissue concentrations and pharmacokinetics of Compound 18 and its metabolite Compound 4 after once daily ocular instillation of Compound 18 nanosuspension for 7 days
Assay type: in vivo, New Zealand white rabbits
Conditions: for Compound 18 Lens Homogenate Conc.: homogenate dilution factor 5; for Cornea homogenate concentration: homogenate dilution factor 15; for concentration at 1 h: Group 1, 1 h
Source text: This example illustrates the procedures and results for the levels of Compound 18 and its metabolite Compound 4 in plasma and ocular tissues of normotensive rabbits following ocular instillation of Compound 18 once daily for 7 consecutive days.
Twenty five (25) male New Zealand white rabbits were divided into 5 groups of varying amounts of animals per group.
The Test article, Compound 18 was formulated as a 2% nanosuspension in DI water containing 0.2% PS80 (polyoxyethylenesorbitan, monooleate (Tween 80)) and 0.4% HPMC (hydroxypropylmethylcellulose) at pH 6.77. Referred to herein as “Compound 18 nanosuspension.”
The study consisted of three groups (Groups 1-3) of 19 male rabbits (NZW) that underwent once daily morning ocular installation (1 eyedrop) for 7 consecutive days (Day 0-6). Groups 4-5 each consisted of 3 male rabbits (NZW) that were not dosed.
Blood samples (1 mL) were collected from the jugular vein at the intervals set out below for each group. The samples were then inverted several times following collection and held on wet ice until centrifuged. Samples were centrifuged within 60 minutes of collection under refrigeration (set at 5° C. for 10 minutes at 2000 g.
Group 1 (Pilot Study, terminal blood collection): blood was collected from 3 animals at 1 hour post day 7 dose of Compound 18 nanosuspension.
Group 3 (TD Phase, terminal blood collection): blood was collected from 3 animals at 0.5 hour, 3 animals at 2 hours, 3 animals at 4 hours, and 3 animals at 8 hours post day 7 dose of Compound 18 nanosuspension.
(§1) Group 1 (Pilot Study): 3 animals were terminated at 1 hour post Day 7 dose of Compound 18 nanosuspension. Following blood collection and termination, ocular tissues (aqueous humor, vitreous humor, cornea, iris/ciliary body, lens, optic nerve, retina, sclera/choroid, and trabecular meshwork) were collected from each animal and the tissue weights were recorded. Note: sclera and choroid were collected together. Iris and ciliary body were collected together.
as §1, with “3 (TD Phase):” for “1 (Pilot Study):”, “0.5 hour, 3 animals at 2 hours, 3 animals at 4 hours, and 3 animals at 8 hours” for “1 hour”
Plasma and tissue samples from treated animals (Groups 1-3) were analyzed for Compound 18 and its metabolite Compound 4 concentrations by LC-MS/MS.
Pharmacokinetic analysis was conducted using WinNonlin Version 6.2.1 (Pharsight, Mountain View, Calif.), operating as a validated software system. Noncompartmental analysis was conducted using the extravascular administration model for ocular instillation dosing.
The peak plasma and ocular tissue concentration, time to achieve peak plasma and ocular tissue concentration, half-life, and area under the plasma and ocular tissue concentration-time curve (Cmax, Tmax, T1/2, and AUC) were calculated from the TD phase combined with the pilot study mean animal plasma and ocular tissue concentrations for each sampling time/dose group for Compound 18 and its metabolite Compound 4.
BA Assay: Quantitation Range 0.05 to 100 ng/mL for Compound 18, 0.15 to 100 ng/mL for Compound 4.
3. Pipet 50 μL of each type of pre-spiked ocular tissue samples (AH/VH) for QC samples, 50 μL of incurred aqueous humor, and vitreous humor sample (if applicable) into a 96 well plate.
Ocular Tissues Homogenate Preparation: Incurred rabbit ocular tissues were weighed in Genogrinder tubes (plastic tubes with small beads) at the time of removal from the animal and stored frozen (<−70° C.) until analysis. The rabbit incurred ocular tissues were thawed on wet ice. […]

[1] = TD Phase, Group 3, 4 h, Mean, BQL set to 0
[2] = TD Phase, Group 3, 4 h, individual animals
[3] = TD Phase, Group 3, 4 h, individual animals, BQL set to 0
[4] = TD Phase, Group 3, 4 h, individual animals, homogenate dilution factor 20
[5] = TD Phase, Group 3, 8 h, Mean, BQL set to 0
[6] = TD Phase, Group 3, 8 h, individual animals
[7] = TD Phase, Group 3, 8 h, individual animals, BQL set to 0
[8] = TD Phase, Group 3, 8 h, individual animals, homogenate dilution factor 20

CCCc1nn(C)c2c(=O)[nH]c(-c3cc(S(=O)(=O)N4CC(CCCO[N+](=O)[O-])C4)ccc3OCC)nc12 [Compound 18, 3-(1-((4-ethoxy-3-(1-methyl-7-oxo-3-propyl-6,7-dihydro-1H-pyrazolo[4,3-d]pyrimidin-5-yl)phenyl)sulfonyl)azetidin-3-yl)propyl nitrate]
Compound 18 Trahecular Meshwork Homogenate Conc. (TD Phase, Group 3, 2 h, individual animals, homogenate dilution factor 20): BQL (BQL = Below lower limit of quantitation (0.0500 ng/mL for Compound 18) | Compound 18 Retina Homogenate Conc. (TD Phase, Group 3, 2 h, individual animals, homogenate dilution factor 20 (164 for animal 207671)): 0.192 ng/mL and 3.47 ng/mL and 0.17 ng/mL | Compound 18 Aqueous Humor Conc. [1]: BQL (BQL = Below lower limit of quantitation (0.0500 ng/mL for Compound 18) | Compound 18 Plasma Conc. [1]: BQL (BQL = Below lower limit of quantitation (0.0500 ng/mL for Compound 18) | Compound 18 Vitreous Humor Conc. [1]: BQL (BQL = Below lower limit of quantitation (0.0500 ng/mL for Compound 18) | Compound 18 Aqueous Humor Conc. [2]: BQL (BQL = Below lower limit of quantitation (0.0500 ng/mL for Compound 18) | Compound 18 Plasma Conc. [2]: BQL (BQL = Below lower limit of quantitation (0.0500 ng/mL for Compound 18) | Compound 18 Vitreous Humor Conc. [2]: BQL (BQL = Below lower limit of quantitation (0.0500 ng/mL for Compound 18) | Final Compound 18 Optic Nerve Conc. [2]: 248 ng/g and 31.4 ng/g and 104 ng/g | Final Compound 18 Iris/Ciliary Body Conc. [3]: 5.78 ng/g and 0 ng/g and 8.84 ng/g | Final Compound 18 Lens Conc. [3]: 0 ng/g (2×) and 0.384 ng/g | Final Compound 18 Retina Conc. [3]: 39.6 ng/g and 6.02 ng/g and 36.2 ng/g | Compound 18 Lens Homogenate Conc. [2]: BQL (BQL = Below lower limit of quantitation (0.0500 ng/mL for Compound 18) | Cornea homogenate concentration [2]: BQL (BQL = Below lower limit of quantitation (0.0500 ng/mL for Compound 18) | Compound 18 Iris/Ciliary Body Homogenate Conc. [4]: BQL (BQL = Below lower limit of quantitation (0.0500 ng/mL for Compound 18) and 0.442 ng/mL | Compound 18 Optic Nerve Homogenate Conc. [4]: 12.4 ng/mL and 1.57 ng/mL and 5.20 ng/mL | Compound 18 Retina Homogenate Conc. [4]: 1.98 ng/mL and 0.301 ng/mL and 1.81 ng/mL | Compound 18 Aqueous Humor Conc. [5]: BQL (BQL = Below lower limit of quantitation (0.0500 ng/mL for Compound 18) | Compound 18 Vitreous Humor Conc. [5]: BQL (BQL = Below lower limit of quantitation (0.0500 ng/mL for Compound 18) | Compound 18 Aqueous Humor Conc. [6]: BQL (BQL = Below lower limit of quantitation (0.0500 ng/mL for Compound 18) | Compound 18 Plasma Conc. [6]: BQL (BQL = Below lower limit of quantitation (0.0500 ng/mL for Compound 18) | Compound 18 Vitreous Humor Conc. [6]: BQL (BQL = Below lower limit of quantitation (0.0500 ng/mL for Compound 18) | Final Compound 18 Optic Nerve Conc. [6]: 26.2 ng/g and 108 ng/g and 50.6 ng/g | Final Compound 18 Iris/Ciliary Body Conc. [7]: 2.90 ng/g and 0 ng/g (2×) | Final Compound 18 Lens Conc. [7]: 0 ng/g | Final Compound 18 Retina Conc. [7]: 8.70 ng/g and 3.64 ng/g and 9.16 ng/g | Compound 18 Lens Homogenate Conc. [6]: BQL (BQL = Below lower limit of quantitation (0.0500 ng/mL for Compound 18) | Cornea homogenate concentration [6]: BQL (BQL = Below lower limit of quantitation (0.0500 ng/mL for Compound 18) | Compound 18 Iris/Ciliary Body Homogenate Conc. [8]: BQL (BQL = Below lower limit of quantitation (0.0500 ng/mL for Compound 18) | Compound 18 Optic Nerve Homogenate Conc. [8]: 1.31 ng/mL and 5.41 ng/mL and 2.53 ng/mL | Compound 18 Retina Homogenate Conc. [8]: 0.435 ng/mL and 0.182 ng/mL and 0.458 ng/mL | Compound 18 Trahecular Meshwork Homogenate Conc. [8]: BQL (BQL = Below lower limit of quantitation (0.0500 ng/mL for Compound 18) | tissue of highest concentration (TD phase plasma and ocular tissues): highest in optic nerve and sclera/choroid | AUC0-8 (aqueous humor, vitreous humor, plasma, and lens (relatively low exposure)): 0.02-1.2 h*ng/mL or h*ng/g | AUC0-8 (cornea, Day 7, from mean concentrations): 209 ng·h/g | AUC0-8 (iris/ciliary body, Day 7, from mean concentrations): 150 ng·h/g | AUC0-8 (lens, Day 7, from mean concentrations): 1.19 ng·h/g | concentration at 1 h (male, New Zealand white, rabbit, aqueous humor, other: ocular instillation (eye drop), 0.8 mg/kg/day, TD Phase, Mean, BQL set to 0, read-out: Compound 18 Aqueous Humor Conc.): 0.063 ng/mL | concentration at 1 h (male, New Zealand white, rabbit, aqueous humor, other: ocular instillation (eye drop), 0.8 mg/kg/day, TD Phase, individual animals, read-out: Compound 18 Aqueous Humor Conc.): 0.189 ng/mL | concentration at 4 h (male, New Zealand white, rabbit, iris/ciliary body homogenate, topical, 2 mg/day, TD Phase, Group 3, 4 h, individual animals, homogenate dilution factor 20, read-out: Compound 18 Iris/Ciliary Body Homogenate Conc.): 0.289 ng/mL | concentration at 8 h (male, New Zealand white, rabbit, iris/ciliary body homogenate, topical, 2 mg/day, TD Phase, Group 3, 8 h, individual animals, homogenate dilution factor 20, read-out: Compound 18 Iris/Ciliary Body Homogenate Conc.): 0.145 ng/mL | concentration at 1 h (male, New Zealand white, rabbit, iris/ciliary body, topical, 0.798 mg/kg/day, TD Phase, Mean, read-out: Final Compound 18 Iris/Ciliary Body Conc.): 107 ng/g | concentration at 0.5 h (male, New Zealand white, rabbit, iris/ciliary body, topical, 0.798 mg/kg/day, TD Phase, Group 3, 0.5 h, Mean, read-out: Final Compound 18 Iris/Ciliary Body Conc.): 90.1 ng/g
